ChEMBL document CHEMBL1142851, “An efficient synthesis of aryloxyphenyl cyclopropyl methanones: a new class of anti-mycobacterial agents” (2005)
In brackets after ≈: the same amount, converted by molar mass.

Tests used:
[1] = tested on: Mycobacterium tuberculosis; assay: Minimum inhibitory concentration against H37Ra stain of Mycobacterium tuberculosis using MABA method; type: functional
[2] = tested on: Mycobacterium tuberculosis; assay: Minimum inhibitory concentration against H37Rv stain of Mycobacterium tuberculosis using Agar Microdilution; type: functional

c1cncc(COc2ccc(CC3CC3)cc2)c1
MIC [1]: > 25 µg/mL | MIC [2]: 25 µg/mL (≈ 104 µM)

O=C(c1ccc(OCc2ccccc2Cl)cc1)C1CC1
MIC [1]: > 25 µg/mL | MIC [2]: 12.5 µg/mL (≈ 43.6 µM)

Fc1ccc(COc2ccc(CC3CC3)cc2)cc1
MIC [2]: 12.5 µg/mL (≈ 48.8 µM)

COc1ccc(COc2ccc(CC3CC3)cc2)cc1OC
MIC [1]: 12.5 µg/mL (≈ 41.9 µM) | MIC [2]: 25 µg/mL (≈ 83.8 µM)

OC(c1ccc(OCc2ccncc2)cc1)C1CC1 (configuration not stated)
MIC [1]: > 25 µg/mL | MIC [2]: > 25 µg/mL

O=C(c1ccc(OCC2CCCC2)cc1)C1CC1
MIC [1]: > 25 µg/mL | MIC [2]: 25 µg/mL (≈ 102 µM)

OC(c1ccc(OCc2ccccc2)cc1)C1CC1 (configuration not stated)
MIC [1]: > 50 µg/mL | MIC [2]: 25 µg/mL (≈ 98.3 µM)

O=C(c1ccc(OCc2ccc(F)cc2)cc1)C1CC1
MIC [1]: > 25 µg/mL | MIC [2]: 12.5 µg/mL (≈ 46.2 µM)

COc1ccc(COc2ccc(C(O)C3CC3)cc2)cc1 (configuration not stated)
MIC [1]: > 50 µg/mL | MIC [2]: 3.12 µg/mL (≈ 11 µM)

c1ccc(COc2ccc(CC3CC3)cc2)cc1
MIC [1]: > 50 µg/mL | MIC [2]: 12.5 µg/mL (≈ 52.4 µM)

OC(c1ccc(OCc2ccccc2Cl)cc1)C1CC1 (configuration not stated)
MIC [1]: > 25 µg/mL

OC(c1ccc(OCc2ccco2)cc1)C1CC1 (configuration not stated)
MIC [1]: > 25 µg/mL | MIC [2]: > 25 µg/mL

O=C(c1ccc(OCc2ccccc2)cc1)C1CC1
MIC [1]: 25 µg/mL (≈ 99.1 µM) | MIC [2]: 6.25 µg/mL (≈ 24.8 µM)

COc1ccc(COc2ccc(C(=O)C3CC3)cc2)cc1
MIC [1]: > 50 µg/mL | MIC [2]: 12.5 µg/mL (≈ 44.3 µM)

COc1ccc(COc2ccc(C(=O)C3CC3)cc2)cc1OC
MIC [1]: 25 µg/mL (≈ 80 µM) | MIC [2]: 12.5 µg/mL (≈ 40 µM)

O=C(c1ccc(OCC2CCCCC2)cc1)C1CC1
MIC [1]: > 25 µg/mL | MIC [2]: > 25 µg/mL

Clc1ccccc1COc1ccc(CC2CC2)cc1
MIC [1]: > 25 µg/mL | MIC [2]: > 50 µg/mL

O=C(c1ccc(OCc2cccnc2)cc1)C1CC1
MIC [1]: > 25 µg/mL | MIC [2]: 25 µg/mL (≈ 98.7 µM)

O=C(c1ccc(OCc2ccc(Cl)cc2)cc1)C1CC1
MIC [1]: > 25 µg/mL | MIC [2]: 25 µg/mL (≈ 87.2 µM)

COc1ccc(COc2ccc(C(O)C3CC3)cc2)cc1OC (configuration not stated)
MIC [1]: 3.12 µg/mL (≈ 9.92 µM) | MIC [2]: > 50 µg/mL

O=C(c1ccc(OCCc2ccco2)cc1)C1CC1
MIC [1]: 25 µg/mL (≈ 97.5 µM) | MIC [2]: 25 µg/mL (≈ 97.5 µM)

O=C(c1ccc(OCc2ccc(Cl)c(Cl)c2)cc1)C1CC1
MIC [1]: > 25 µg/mL | MIC [2]: 25 µg/mL (≈ 77.8 µM)

OC(c1ccc(OCC2CCCC2)cc1)C1CC1 (configuration not stated)
MIC [1]: 25 µg/mL (≈ 101 µM) | MIC [2]: 3.12 µg/mL (≈ 12.7 µM)

OC(c1ccc(OCc2cccnc2)cc1)C1CC1 (configuration not stated)
MIC [1]: > 25 µg/mL | MIC [2]: > 25 µg/mL

COc1ccc(COc2ccc(CC3CC3)cc2)cc1
MIC [1]: > 25 µg/mL | MIC [2]: 25 µg/mL (≈ 93.2 µM)

OC(c1ccc(OCc2ccc(F)cc2)cc1)C1CC1 (configuration not stated)
MIC [1]: 25 µg/mL (≈ 91.8 µM) | MIC [2]: 6.25 µg/mL (≈ 23 µM)

O=C(c1ccc(OCc2ccncc2)cc1)C1CC1
MIC [1]: > 25 µg/mL | MIC [2]: 12.5 µg/mL (≈ 49.3 µM)
